Where “and” joins values, the source holds several entries; their conditions need not be identical. Equal entries are not always repeated. Inconclusive results and toxic doses are left out.
Test system: L1210 leukemia ip in BDF1 mice, survival T/C
Assay: NCI In Vivo Anticancer Drug Screen. Data for tumor model L1210 Leukemia (intraperitoneal) in B6D2F1 (BDF1) mice
Details: endpoint: mean survival time, higher = longer survival
Summary of the method: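 Survival endpoint. Drug-treated group vs vehicle group, expressed as T divided by C. Tumor passaged by transplantation.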

[1] = dose: 100.0 mg/kg/injection, schedule: Q01DX009 (ip), vehicle: Klucel (hydroxypropylcellulose) (HPC)
[2] = dose: 200.0 mg/kg/injection, schedule: Q01DX009 (ip), vehicle: Klucel (hydroxypropylcellulose) (HPC)
[3] = dose: 400.0 mg/kg/injection, schedule: Q01DX009 (ip), vehicle: Klucel (hydroxypropylcellulose) (HPC)
[4] = dose: 6.25 mg/kg/injection, schedule: Q01DX009 (ip), vehicle: saline
[5] = dose: 12.5 mg/kg/injection, schedule: Q01DX009 (ip), vehicle: saline
[6] = dose: 25.0 mg/kg/injection, schedule: Q01DX009 (ip), vehicle: saline
[7] = dose: 100.0 mg/kg/injection, schedule: Q01DX001 (ip), vehicle: saline
[8] = dose: 200.0 mg/kg/injection, schedule: Q01DX001 (ip), vehicle: saline
[9] = dose: 400.0 mg/kg/injection, schedule: Q01DX001 (ip), vehicle: saline
[10] = dose: 100.0 mg/kg/injection, schedule: Q04DX003 (ip), vehicle: Klucel (hydroxypropylcellulose) (HPC)
[11] = dose: 200.0 mg/kg/injection, schedule: Q04DX003 (ip), vehicle: Klucel (hydroxypropylcellulose) (HPC)
[12] = dose: 75.0 mg/kg/injection, schedule: Q01DX001 (ip), vehicle: saline
[13] = dose: 75.0 mg/kg/injection, schedule: Q04DX003 (ip), vehicle: saline
[14] = dose: 150.0 mg/kg/injection, schedule: Q01DX001 (ip), vehicle: saline
[15] = dose: 150.0 mg/kg/injection, schedule: Q04DX003 (ip), vehicle: saline

CC(=O)Nc1ccc(Cc2ccc3[nH]c(=O)cc(C)c3c2)cc1
T/C (dose: 100.0 mg/kg/injection, schedule: Q01DX001 (ip), vehicle: carboxymethylcellulose (CMC)): 96 % of control | T/C (dose: 200.0 mg/kg/injection, schedule: Q01DX001 (ip), vehicle: carboxymethylcellulose (CMC)): 98 % of control | T/C (dose: 400.0 mg/kg/injection, schedule: Q01DX001 (ip), vehicle: carboxymethylcellulose (CMC)): 101 % of control

COc1cc(C(=O)NNC(=O)c2cccc(C)c2)cc(OC)c1OC
T/C [1]: 100 % of control | T/C [2]: 95 % of control | T/C [3]: 105 % of control

O=CN(O)CC(=O)O.[Zn]
T/C [4]: 105 % of control | T/C [5]: 100 % of control | T/C [6]: 120 % of control

CCCCN(C(=O)C(F)(F)F)C(C)(C)C(SSSC(c1ccc(Cl)cc1)C(C)(C)N(CCCC)C(=O)C(F)(F)F)c1ccc(Cl)cc1 (stereo not given)
T/C (dose: 100.0 mg/kg/injection, schedule: Q01DX009 (ip), vehicle: saline sonified): 103 % of control | T/C (dose: 100.0 mg/kg/injection, schedule: Q04DX003 (ip), vehicle: saline sonified): 96 % of control | T/C (dose: 200.0 mg/kg/injection, schedule: Q01DX009 (ip), vehicle: saline sonified): 100 % of control | T/C (dose: 200.0 mg/kg/injection, schedule: Q04DX003 (ip), vehicle: saline sonified): 94 % of control | T/C (dose: 400.0 mg/kg/injection, schedule: Q01DX009 (ip), vehicle: saline sonified): 96 % of control | T/C (dose: 400.0 mg/kg/injection, schedule: Q04DX003 (ip), vehicle: saline sonified): 97 % of control

CCOc1ccccc1/C=N\N=C(N/N=C/c1ccccc1OCC)N/N=C/c1ccccc1OCC
T/C (dose: 60.0 mg/kg/injection, schedule: Q01DX Z (oral), vehicle: saline): 91 % of control | T/C (dose: 120.0 mg/kg/injection, schedule: Q01DX Z (oral), vehicle: saline): 100 % of control | T/C (dose: 240.0 mg/kg/injection, schedule: Q01DX Z (oral), vehicle: saline): 95 % of control | T/C (dose: 480.0 mg/kg/injection, schedule: Q01DX Z (oral), vehicle: saline): 95 % of control

CCCCCCCCCc1cc(C)cc(Cc2cc(C)cc(CCCCCCCCC)c2O)c1O
T/C [7]: 98 % of control | T/C [8]: 98 % of control | T/C [9]: 101 % of control

CCC(=O)Nc1cc(C)ccc1Cl
T/C [1]: 101 % of control | T/C [2]: 103 % of control | T/C [3]: 103 % of control

CCCCCCCCCCCn1cnc2c(N)ncnc21
T/C (dose: 12.5 mg/kg/injection, schedule: Q01DX005 (ip), vehicle: other): 93 % of control | T/C (dose: 25.0 mg/kg/injection, schedule: Q01DX005 (ip), vehicle: other): 103 % of control | T/C (dose: 50.0 mg/kg/injection, schedule: Q01DX005 (ip), vehicle: other): 92 % of control | T/C (dose: 100.0 mg/kg/injection, schedule: Q01DX005 (ip), vehicle: other): 103 % of control | T/C (dose: 200.0 mg/kg/injection, schedule: Q01DX005 (ip), vehicle: other): 104 % of control

COc1ccc(/C(=N\N=C(N)N)C2CC2)cc1
T/C (dose: 120.0 mg/kg/injection, schedule: Q01DX Z (oral), vehicle: carboxymethylcellulose (CMC)): 90 % of control

O=C(C=C(C(F)(F)F)C(F)(F)F)c1cccc(Cl)c1
T/C [4]: 100 % of control | T/C (dose: 6.25 mg/kg/injection, schedule: Q04DX003 (ip), vehicle: saline with Tween-80): 96 % of control | T/C [5]: 100 % of control | T/C (dose: 12.5 mg/kg/injection, schedule: Q04DX003 (ip), vehicle: saline with Tween-80): 107 % of control | T/C [6]: 97 % of control | T/C (dose: 25.0 mg/kg/injection, schedule: Q04DX003 (ip), vehicle: saline with Tween-80): 100 % of control | T/C (dose: 50.0 mg/kg/injection, schedule: Q04DX003 (ip), vehicle: saline with Tween-80): 100 % of control

CN(C)c1ccc(C(=S)c2ccc(N(C)C)nc2)cn1
T/C [1]: 102 % of control | T/C [10]: 98 % of control | T/C [2]: 88 % of control | T/C [11]: 106 % of control | T/C [3]: 98 % of control | T/C (dose: 400.0 mg/kg/injection, schedule: Q04DX003 (ip), vehicle: Klucel (hydroxypropylcellulose) (HPC)): 104 % of control

Cc1ccc(S(=O)(=O)OCC2CCC(COS(=O)(=O)c3ccc(C)cc3)O2)cc1 (stereo not given)
T/C [10]: 103 % of control | T/C [11]: 100 % of control

CCOC(=O)c1cc(C(=O)OCC)c(=O)oc1OCC
T/C (dose: 18.75 mg/kg/injection, schedule: Q01DX009 (ip), vehicle: acetone): 105 % of control | T/C (dose: 37.5 mg/kg/injection, schedule: Q01DX009 (ip), vehicle: acetone): 87 % of control | T/C (dose: 37.5 mg/kg/injection, schedule: Q04DX003 (ip), vehicle: saline): 88 % of control | T/C [12]: 110 % of control | T/C (dose: 75.0 mg/kg/injection, schedule: Q01DX009 (ip), vehicle: acetone): 87 % of control | T/C [13]: 90 % of control | T/C [14]: 97 % of control | T/C [15]: 93 % of control

Cc1cc(=S)[nH]c2ccccc12
T/C [13]: 100 % of control | T/C [15]: 100 % of control | T/C (dose: 300.0 mg/kg/injection, schedule: Q04DX003 (ip), vehicle: saline): 100 % of control

Cc1ccc(-n2c(O)c(N=Nc3ccc(Cl)cc3)c(=O)n(-c3ccccc3)c2=S)cc1
T/C (dose: 37.5 mg/kg/injection, schedule: Q01DX001 (ip), vehicle: Klucel (hydroxypropylcellulose) (HPC)): 96 % of control | T/C (dose: 75.0 mg/kg/injection, schedule: Q01DX001 (ip), vehicle: Klucel (hydroxypropylcellulose) (HPC)): 92 % of control | T/C (dose: 150.0 mg/kg/injection, schedule: Q01DX001 (ip), vehicle: Klucel (hydroxypropylcellulose) (HPC)): 102 % of control

CCOC(=O)c1ccc(NC(=O)Nc2ccc(F)cc2)cc1
T/C [1]: 90 % of control | T/C [2]: 90 % of control

CN(C)CCC(O)C(c1ccccc1)c1ccccc1 (stereo not given)
T/C [12]: 100 % of control | T/C [14]: 102 % of control

CCOC(=O)C(=O)Cc1nc2ccccc2[nH]c1=O
T/C (dose: 50.0 mg/kg/injection, schedule: Q01DX009 (ip), vehicle: Klucel (hydroxypropylcellulose) (HPC)): 94 % of control | T/C [1]: 91 % of control | T/C [2]: 94 % of control

OCC1C2CCC(O2)C1CO (stereo not given)
T/C (dose: 0.75 mg/kg/injection, schedule: Q04DX002 (ip), vehicle: saline): 96 % of control | T/C (dose: 1.5 mg/kg/injection, schedule: Q04DX002 (ip), vehicle: saline): 93 % of control and 110 % of control | T/C (dose: 3.0 mg/kg/injection, schedule: Q04DX002 (ip), vehicle: saline): 96 % of control | T/C (dose: 6.0 mg/kg/injection, schedule: Q04DX002 (ip), vehicle: saline): 101 % of control and 115 % of control | T/C (dose: 12.5 mg/kg/injection, schedule: Q04DX002 (ip), vehicle: saline): 101 % of control | T/C (dose: 25.0 mg/kg/injection, schedule: Q04DX002 (ip), vehicle: saline): 108 % of control | T/C (dose: 50.0 mg/kg/injection, schedule: Q04DX002 (ip), vehicle: saline): 111 % of control | T/C (dose: 100.0 mg/kg/injection, schedule: Q04DX002 (ip), vehicle: saline): 105 % of control

CCC(C)(C1CCC(=O)CC1)C1CCC(=O)CC1
T/C [7]: 94 % of control | T/C [8]: 100 % of control | T/C [9]: 93 % of control

CC(=O)Nc1nc(Cl)c2ncn(C3OC(COC(=O)c4ccccc4)CC3OC(=O)c3ccccc3)c2n1 (stereo not given)
T/C (dose: 50.0 mg/kg/injection, schedule: Q01DX001 (ip), vehicle: saline): 93 % of control | T/C [7]: 95 % of control | T/C [8]: 101 % of control | T/C [9]: 93 % of control

COC1C(NC(=O)N(CCCl)N=O)C(OC(C)=O)OC(COC(C)=O)C1OC(C)=O (stereo not given)
T/C (dose: 1.8 mg/kg/injection, schedule: Q01DX001 (ip), vehicle: saline with Tween-80): 118 % of control | T/C (dose: 2.6 mg/kg/injection, schedule: Q01DX001 (ip), vehicle: saline with Tween-80): 181 % of control | T/C (dose: 4.0 mg/kg/injection, schedule: Q01DX001 (ip), vehicle: saline with Tween-80): 154 % of control | T/C (dose: 6.0 mg/kg/injection, schedule: Q01DX001 (ip), vehicle: saline with Tween-80): 259 % of control [middle of 4 runs] | T/C (dose: 9.0 mg/kg/injection, schedule: Q01DX001 (ip), vehicle: saline with Tween-80): 283 % of control and 162 % of control | T/C (dose: 13.0 mg/kg/injection, schedule: Q01DX001 (ip), vehicle: saline with Tween-80): 333 % of control and 232 % of control | T/C (dose: 20.0 mg/kg/injection, schedule: Q01DX001 (ip), vehicle: saline with Tween-80): 155 % of control and 154 % of control | T/C (dose: 30.0 mg/kg/injection, schedule: Q01DX001 (ip), vehicle: saline with Tween-80): 86 % of control

Source: PubChem BioAssay AID248 (DTP/NCI, 2004)
